Experimental data taken from US6914045B2, “Glycopeptide antibiotics” (Wyeth Holdings Corporation, priority 2001, dated 2005).
In brackets after ≈: the same amount, converted by molar mass.

Key:
Assay in all cases: in vitro antibacterial evaluation, MIC by broth dilution
Format in all cases: cell-based
[1] = system: Escherichia coli; details: 18 hours at 35° C.
[2] = system: Streptococcus sp.; details: broth dilution, 18 hours at 35° C.
Outline: (§1)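 Step 1: dilute antibiotic across 64-0.06 μg/mL in Muller-Hinton II […]. Step 2: inoculate at 5×10^5 CFU/mL.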

[3] = system: Enterococcus sp.; details: broth dilution, 18 hours at 35° C.
Outline: as §1

[4] = system: Staphylococcus sp.; details: broth dilution, 18 hours at 35° C.
Outline: as §1

CC(c1ccccc1)C1NC(=O)CNC(=O)C(CO)NC(=O)C(C(O)C2CNC(=N)N2C2OC(CO)C(O)C(O)C2O)NC(=O)C(C(O)C2CNC(=N)N2)NC(=O)C(Cc2ccc(OC3OC(CO)C(OC4OC5COC6(CCSCC6)OC5C(O)C4O)C(O)C3O)cc2)NC1=O (stereo not drawn) [Example 217]
MIC Escherichia coli (ATCC 25922) [1]: 64 mg/L (≈ 45.9 µM) | MIC Escherichia coli (GC 4559) [1]: 32 mg/L (≈ 23 µM) | MIC Escherichia coli (GC 4560) [1]: 2 mg/L (≈ 1.44 µM) | MIC Streptococcus agalactiae (GC 4564) [2]: 2 mg/L (≈ 1.44 µM) | MIC Streptococcus pneumoniae (ATCC 6301) [2]: 1 mg/L (≈ 0.718 µM) | MIC Streptococcus pneumoniae (GC 1894) [2]: 0.25 mg/L (≈ 0.179 µM) | MIC Streptococcus pneumoniae (GC 4565) [2]: 0.5 mg/L (≈ 0.359 µM) | MIC Streptococcus pyogenes (GC 4563) [2]: 1 mg/L (≈ 0.718 µM) | MIC Streptococcus pneumoniae (ATCC 6301) ([2]; inoculum 5×10^5 CFU/mL, strain ATCC 6301): 1 mg/L (≈ 0.718 µM) | MIC Streptococcus pneumoniae (GC 1894) ([2]; inoculum 5×10^5 CFU/mL, strain GC 1894): 0.25 mg/L (≈ 0.179 µM) | MIC Streptococcus pyogenes (GC 4563) ([2]; inoculum 5×10^5 CFU/mL, strain GC 4563): 1 mg/L (≈ 0.718 µM) | MIC Streptococcus agalactiae (GC 4564) ([2]; inoculum 5×10^5 CFU/mL, strain GC 4564): 2 mg/L (≈ 1.44 µM) | MIC Streptococcus pneumoniae (GC 4565) ([2]; inoculum 5×10^5 CFU/mL, strain GC 4565): 0.5 mg/L (≈ 0.359 µM) | MIC Enterococcus avium (GC 4558) [3]: 16 mg/L (≈ 11.5 µM) | MIC Enterococcus faecalis (ATCC 29212) [3]: 16 mg/L (≈ 11.5 µM) | MIC Enterococcus faecalis (GC 2242) [3]: 16 mg/L (≈ 11.5 µM) | MIC Enterococcus faecalis (GC 2691) [3]: 16 mg/L (≈ 11.5 µM) | MIC Enterococcus faecalis (GC 3059) [3]: 32 mg/L (≈ 23 µM) | MIC Enterococcus faecalis (GC 4552) [3]: 16 mg/L (≈ 11.5 µM) | MIC Enterococcus faecalis (GC 4553) [3]: 32 mg/L (≈ 23 µM) | MIC Enterococcus faecalis (GC 4554) [3]: 32 mg/L (≈ 23 µM) | MIC Enterococcus faecalis (GC 6189) [3]: 16 mg/L (≈ 11.5 µM) | MIC Enterococcus faecium (GC 2243) [3]: 16 mg/L (≈ 11.5 µM) | MIC Enterococcus faecium (GC 4556) [3]: 16 mg/L (≈ 11.5 µM) | MIC Enterococcus faecium (GC 4557) [3]: 8 mg/L (≈ 5.74 µM) | MIC Enterococcus faecalis (ATCC 29212) ([3]; inoculum 5×10^5 CFU/mL, strain ATCC 29212): 16 mg/L (≈ 11.5 µM) | MIC Enterococcus faecalis (GC 2242) ([3]; inoculum 5×10^5 CFU/mL, strain GC 2242): 16 mg/L (≈ 11.5 µM) | MIC Enterococcus faecium (GC 2243) ([3]; inoculum 5×10^5 CFU/mL, strain GC 2243): 16 mg/L (≈ 11.5 µM) | MIC Enterococcus faecalis (GC 2691) ([3]; inoculum 5×10^5 CFU/mL, strain GC 2691): 16 mg/L (≈ 11.5 µM) | MIC Enterococcus faecalis (GC 3059) ([3]; inoculum 5×10^5 CFU/mL, strain GC 3059): 32 mg/L (≈ 23 µM) | MIC Enterococcus faecalis (GC 4552) ([3]; inoculum 5×10^5 CFU/mL, strain GC 4552): 16 mg/L (≈ 11.5 µM) | MIC Enterococcus faecalis (GC 4553) ([3]; inoculum 5×10^5 CFU/mL, strain GC 4553): 32 mg/L (≈ 23 µM) | MIC Enterococcus faecalis (GC 4554) ([3]; inoculum 5×10^5 CFU/mL, strain GC 4554): 32 mg/L (≈ 23 µM) | MIC Enterococcus faecium (GC 4556) ([3]; inoculum 5×10^5 CFU/mL, strain GC 4556): 16 mg/L (≈ 11.5 µM) | MIC Enterococcus faecium (GC 4557) ([3]; inoculum 5×10^5 CFU/mL, strain GC 4557): 8 mg/L (≈ 5.74 µM) | MIC Enterococcus avium (GC 4558) ([3]; inoculum 5×10^5 CFU/mL, strain GC 4558): 16 mg/L (≈ 11.5 µM) | MIC Enterococcus faecalis (GC 6189) ([3]; inoculum 5×10^5 CFU/mL, strain GC 6189): 16 mg/L (≈ 11.5 µM) | MIC Staphylococcus aureus (ATCC 29213) ([4]; strain ATCC 29213): 4 mg/L (≈ 2.87 µM) | MIC Staphylococcus aureus (GC 1131) ([4]; strain GC 1131): 4 mg/L (≈ 2.87 µM) | MIC Staphylococcus aureus (GC 3051) ([4]; strain GC 3051): 4 mg/L (≈ 2.87 µM) | MIC Staphylococcus aureus (GC 3053) ([4]; strain GC 3053): 8 mg/L (≈ 5.74 µM) | MIC Staphylococcus aureus (GC 4541) ([4]; strain GC 4541): 4 mg/L (≈ 2.87 µM) | MIC Staphylococcus aureus (GC 4542) ([4]; strain GC 4542): 4 mg/L (≈ 2.87 µM) | MIC Staphylococcus aureus-SMITH (GC 4543) ([4]; strain GC 4543): 2 mg/L (≈ 1.44 µM) | MIC Staphylococcus aureus (GC 4544) ([4]; strain GC 4544): 8 mg/L (≈ 5.74 µM) | MIC Staphylococcus aureus (GC 4545) ([4]; strain GC 4545): 4 mg/L (≈ 2.87 µM) | MIC Staphylococcus haemolyticus (GC 4546) ([4]; strain GC 4546): 2 mg/L (≈ 1.44 µM) | MIC Coagulase Negative Staphylococcus (GC 4547) ([4]; strain GC 4547): 4 mg/L (≈ 2.87 µM) | MIC Coagulase Negative Staphylococcus (GC 4548) ([4]; strain GC 4548): 1 mg/L (≈ 0.718 µM) | MIC Coagulase Negative Staphylococcus (GC 4549) ([4]; strain GC 4549): 2 mg/L (≈ 1.44 µM) | MIC Coagulase Negative Staphylococcus (GC 4551) ([4]; strain GC 4551): 8 mg/L (≈ 5.74 µM)
